From ChEMBL document CHEMBL5331042, “Azole inhibitors of mushroom and human tyrosinases: Current advances and prospects of drug development for melanogenic dermatological disorders” (Eur J Med Chem, 2022)

The molecules below were run against T1, Mushroom tyrosinase (Agaricus bisporus, UniProt O42713+Q00024+C7FF04+C7FF05) (assay: Inhibition of mushroom tyrosinase incubated for 10 mins by spectrophotometric analysis).

Row | IC50 [nM] | SMILES
1 | 170 | CCCCCn1nc(-c2ccccc2)n(CC(=O)NNC(=S)Nc2cc(Cl)cc(Cl)c2)c1=O
2 | > 20000 | CCCCCn1nc(-c2ccccc2)n(CC(=O)NNC(=O)Nc2cccc(F)c2)c1=O
3 | > 20000 | CCCCCn1nc(-c2ccccc2)n(CC(=O)NNC(=S)Nc2cccc(Br)c2)c1=O
4 | > 20000 | CCCCCn1nc(-c2ccccc2)n(CC(=O)NNC(=O)Nc2cc(Cl)cc(Cl)c2)c1=O
5 | 1.65 | CCCCCn1nc(-c2ccccc2)n(CC(=O)NNC(=O)Nc2cccc(C(F)(F)F)c2)c1=O
6 | 190 | CCCCCn1nc(-c2ccccc2)n(CC(=O)NNC(=S)Nc2ccc(Cl)cc2)c1=O
7 | 15200 | CCCCCn1nc(-c2ccccc2)n(CC(=O)NNC(=S)Nc2cccc(F)c2)c1=O
8 | 1.62 | CCCCCn1nc(-c2ccccc2)n(CC(=O)NNC(=O)Nc2ccc(Cl)cc2Cl)c1=O
9 | > 20000 | CCCCCn1nc(-c2ccccc2)n(CC(=O)NNC(=S)Nc2ccccc2F)c1=O
10 | 19 | CCCCCn1nc(-c2ccccc2)n(CC(=O)NNC(=S)Nc2ccc(Br)cc2)c1=O
11 | > 20000 | CCCCCn1nc(-c2ccccc2)n(CC(=O)NNC(=O)Nc2ccccc2F)c1=O
12 | > 20000 | CCCCCn1nc(-c2ccccc2)n(CC(=O)NNC(=O)Nc2cccc(Br)c2)c1=O
13 | > 20000 | CCCCCn1nc(-c2ccccc2)n(CC(=O)NNC(=O)Nc2ccc(F)cc2F)c1=O
14 | 4680 | CCCCCn1nc(-c2ccccc2)n(CC(=O)NNC(=S)Nc2ccccc2Cl)c1=O
15 | > 20000 | CCCCCn1nc(-c2ccccc2)n(CC(=O)NNC(=S)Nc2ccc(Cl)cc2Cl)c1=O
16 | > 20000 | CCCCCn1nc(-c2ccccc2)n(CC(=O)NNC(=S)Nc2cccc(C(F)(F)F)c2)c1=O
17 | > 20000 | CCCCCn1nc(-c2ccccc2)n(CC(=O)NNC(=O)Nc2ccccc2Cl)c1=O
18 | 1.97 | CCCCCn1nc(-c2ccccc2)n(CC(=O)NNC(=O)Nc2cc(C(F)(F)F)cc(C(F)(F)F)c2)c1=O
19 | > 20000 | CCCCCn1nc(-c2ccccc2)n(CC(=O)NNC(=S)Nc2ccccc2Br)c1=O
20 | > 20000 | CCCCCn1nc(-c2ccccc2)n(CC(=O)NNC(=O)Nc2ccc(F)cc2)c1=O
21 | > 20000 | CCCCCn1nc(-c2ccccc2)n(CC(=O)NNC(=O)Nc2ccc(Br)cc2)c1=O
22 | > 20000 | CCCCCn1nc(-c2ccccc2)n(CC(=O)NNC(=O)Nc2ccc(Cl)cc2)c1=O
23 | > 20000 | CCCCCn1nc(-c2ccccc2)n(CC(=O)NNC(=O)Nc2ccc(C(F)(F)F)cc2)c1=O
24 | > 20000 | CCCCCn1nc(-c2ccccc2)n(CC(=O)NNC(=O)Nc2ccccc2Br)c1=O
25 | > 20000 | CCCCCn1nc(-c2ccccc2)n(CC(=O)NNC(=S)Nc2cc(C(F)(F)F)cc(C(F)(F)F)c2)c1=O
26 | 5400 | CCCCCn1nc(-c2ccccc2)n(CC(=O)NNC(=S)Nc2cccc(Cl)c2)c1=O

Further lines, the molecule ahead of its results:

Row | SMILES | IC50 [nM]
27 | CCCCCn1nc(-c2ccccc2)n(CC(=O)NNC(=S)Nc2ccc(F)cc2)c1=O | 14
28 | CCCCCn1nc(-c2ccccc2)n(CC(=O)NNC(=S)Nc2ccc(F)cc2F)c1=O | 19

What follows are molecules tested against T1, Mushroom tyrosinase (assay: Inhibition of mushroom tyrosinase using L-DOPA as substrate preincubated for 10 mins followed by substrate addition and measured after 20 mins by absorbance based analysis).

Row | IC50 [nM] | SMILES
29 | 2640 | CC(=O)Nc1ccc(OCc2cn(CC3=CC(=O)C(O)=CC3=O)nn2)cc1
30 | 54 | Cc1ccc(NC(=O)CSc2nnc(Cc3csc(N)n3)n2-c2ccccc2)c(C)c1
31 | 110 | Cc1ccc(NC(=O)CSc2nnc(Cc3csc(N)n3)n2-c2ccccc2)cc1C
32 | 120 | CCc1ccc(NC(=O)CSc2nnc(Cc3csc(N)n3)n2-c2ccccc2)cc1
33 | 16 | Nc1nc(Cc2nnc(SCC(=O)NCCc3ccccc3)n2-c2ccccc2)cs1
34 | 880 | O=C1C=C(Cn2cc(COc3ccc(F)cc3)nn2)C(=O)C=C1O
35 | 1240 | COc1ccc(OCc2cn(CC3=CC(=O)C(O)=CC3=O)nn2)cc1
36 | 58 | Cc1ccc(C)c(NC(=O)CSc2nnc(Cc3csc(N)n3)n2-c2ccccc2)c1
37 | 51 | Cc1cccc(C)c1NC(=O)CSc1nnc(Cc2csc(N)n2)n1-c1ccccc1
38 | 1070 | O=C1C=C(Cn2cc(COc3cccc(F)c3)nn2)C(=O)C=C1O
39 | 1120 | O=C1C=C(Cn2cc(COc3ccc(Cl)cc3Cl)nn2)C(=O)C=C1O
40 | 170 | CCOc1ccc(NC(=O)CSc2nnc(Cc3csc(N)n3)n2-c2ccccc2)cc1
41 | 240 | Cc1cc(C)cc(NC(=O)CSc2nnc(Cc3csc(N)n3)n2-c2ccccc2)c1
42 | 1010 | Nc1nc(Cc2nnc(SCC(=O)NCc3ccccc3)n2-c2ccccc2)cs1
43 | 15 | Cc1ccccc1NC(=O)CSc1nnc(Cc2csc(N)n2)n1-c1ccccc1
44 | 65 | CCc1ccccc1NC(=O)CSc1nnc(Cc2csc(N)n2)n1-c1ccccc1
45 | 520 | O=C1C=C(Cn2cc(COc3ccc([N+](=O)[O-])cc3)nn2)C(=O)C=C1O
46 | 1320 | O=C1C=C(Cn2cc(COc3ccc(CO)cc3)nn2)C(=O)C=C1O
47 | 2010 | Cc1cccc(NC(=O)CSc2nnc(Cc3csc(N)n3)n2-c2ccccc2)c1C
48 | 1330 | O=C1C=C(Cn2cc(COc3ccccc3)nn2)C(=O)C=C1O
49 | 6800 | O=C1C=C(Cn2cc(COc3ccc(Br)cc3)nn2)C(=O)C=C1O
50 | 690 | O=C1C=C(Cn2cc(COc3ccc(Cl)cc3)nn2)C(=O)C=C1O
51 | 990 | O=C1C=C(Cn2cc(COc3cccc(Cl)c3)nn2)C(=O)C=C1O
52 | 130 | Nc1nc(Cc2nnc(SCC(=O)Nc3ccccc3)n2-c2ccccc2)cs1
53 | 190 | CCc1cccc(C)c1NC(=O)CSc1nnc(Cc2csc(N)n2)n1-c1ccccc1

The next lines start with the molecule.

Row | SMILES | IC50 [nM]
54 | COc1ccc(C2=NC(=S)C(C3N=NN=N3)C(=O)O2)cc1 (stereo unspecified) | 73
55 | O=C1OC(c2ccc(Cl)cc2Cl)=NC(=S)C1c1nn[nH]n1 (stereo unspecified) | 47
56 | COc1cc(OC)cc(OCc2cn(CC3=CC(=O)C(O)=CC3=O)nn2)c1 | 740
57 | O=C1OC(c2ccc(Cl)cc2)=NC(=S)C1c1nn[nH]n1 (stereo unspecified) | 290
58 | O=C1OC(c2cccc([N+](=O)[O-])c2)=NC(=S)C1C1N=NN=N1 (stereo unspecified) | 60
59 | COc1cccc(OC)c1C1=NC(=S)C(c2nn[nH]n2)C(=O)O1 (stereo unspecified) | 200
60 | N#Cc1ccc(OCc2cn(CC3=CC(=O)C(O)=CC3=O)nn2)cc1 | 6290
61 | O=C1OC(c2cc([N+](=O)[O-])cc([N+](=O)[O-])c2)=NC(=S)C1c1nn[nH]n1 (stereo unspecified) | 75
62 | O=C1OC(c2ccccc2Cl)=NC(=S)C1c1nn[nH]n1 (stereo unspecified) | 88
63 | O=C1OC(c2ccc([N+](=O)[O-])cc2)=NC(=S)C1c1nn[nH]n1 (stereo unspecified) | 81
64 | O=C1OC(c2cccc(Cl)c2)=NC(=S)C1C1N=NN=N1 (stereo unspecified) | 71
65 | Cc1ccc(C2=NC(=S)C(c3nn[nH]n3)C(=O)O2)cc1 (stereo unspecified) | 310
66 | COc1cc(OCc2cn(CC3=CC(=O)C(O)=CC3=O)nn2)cc(OC)c1OC | 870

The molecules below were run against T1, Mushroom tyrosinase (assay: Inhibition of mushroom tyrosinase using L-DOPA as substrate preincubated for 10 mins followed by substrate addition by absorbance based analysis).

Row | IC50 [nM] | SMILES
67 | 100 | CCn1c2ccccc2c2cc(C3CC(c4cc5ccccc5oc4=O)=NN3c3nc(-c4ccc(Br)cc4)cs3)ccc21 (stereo unspecified)
68 | 460 | O=c1oc2ccccc2cc1C1=NN(c2nc(-c3ccc(Br)cc3)cs2)C(c2ccc(Cl)cc2)C1 (stereo unspecified)
69 | 96 | O=c1oc2ccccc2cc1C1=NN(c2nc(-c3ccc(Br)cc3)cs2)C(c2ccccc2O)C1 (stereo unspecified)
70 | 28 | O=c1oc2ccccc2cc1C1=NN(c2nc(-c3ccc(Br)cc3)cs2)C(c2cc([N+](=O)[O-])ccc2Cl)C1 (stereo unspecified)

More lines, now with the values behind:

Row | SMILES | IC50 [nM]
71 | COc1ccccc1/C=N/c1nnc(S)s1 | 730
72 | Sc1nnc(/N=C/c2ccc(Cl)c(Cl)c2)s1 | 3620
73 | Oc1ccc(Cl)cc1/C=N/c1nnc(S)s1 | 1710
74 | COc1cc(/C=N/c2nnc(S)s2)cc(OC)c1 | 5350
75 | COc1cc(OC)c(/C=N/c2nnc(S)s2)c(OC)c1 | 900
76 | O=c1oc2ccccc2cc1C1=NN(c2nc(-c3ccc(Br)cc3)cs2)C(c2cc([N+](=O)[O-])ccc2O)C1 (stereo unspecified) | 910
77 | Sc1nnc(/N=C/c2cccc(Cl)c2)s1 | 4750
78 | O=c1oc2ccccc2cc1C1=NN(c2nc(-c3ccc(Br)cc3)cs2)C(c2ccccc2)C1 (stereo unspecified) | 260
79 | Oc1ccc(Br)cc1/C=N/c1nnc(S)s1 | 1970
80 | Fc1ccccc1/C=N/c1nnc(S)s1 | 760
81 | COc1cccc(C2CC(c3cc4ccccc4oc3=O)=NN2c2nc(-c3ccc(Br)cc3)cs2)c1O (stereo unspecified) | 37
82 | O=c1oc2ccccc2cc1C1=NN(c2nc(-c3ccc(Br)cc3)cs2)C(c2ccc(O)cc2)C1 (stereo unspecified) | 230
83 | O=[N+]([O-])c1ccccc1/C=N/c1nnc(S)s1 | 670
84 | O=c1oc2ccccc2cc1C1=NN(c2nc(-c3ccc(Br)cc3)cs2)C(c2ccco2)C1 (stereo unspecified) | 380
85 | O=c1oc2ccccc2cc1C1=NN(c2nc(-c3ccc(Br)cc3)cs2)C(c2ccc(Br)cc2)C1 (stereo unspecified) | 52
86 | S=c1[nH]nc(/N=C/c2ccc(Cl)cc2)s1 | 2460
87 | CC(C)(C)c1ccc(/C=N/c2nnc(S)s2)cc1 | 1400
88 | COc1cc(/C=N/c2nnc(S)s2)cc(OC)c1O | 473
89 | O=c1oc2ccccc2cc1C1=NN(c2nc(-c3ccc(Br)cc3)cs2)C(c2ccc([N+](=O)[O-])cc2)C1 (stereo unspecified) | 130
90 | CN(C)c1ccc(C2CC(c3cc4ccccc4oc3=O)=NN2c2nc(-c3ccc(Br)cc3)cs2)cc1 (stereo unspecified) | 220
91 | COc1ccc(C2CC(c3cc4ccccc4oc3=O)=NN2c2nc(-c3ccc(Br)cc3)cs2)cc1[N+](=O)[O-] (stereo unspecified) | 870
92 | O=c1oc2ccccc2cc1C1=NN(c2nc(-c3ccc(Br)cc3)cs2)C(c2ccc(OCc3ccccc3)cc2)C1 (stereo unspecified) | 970
93 | Sc1nnc(/N=C/c2ccccc2)s1 | > 20000
94 | COc1ccc(C2CC(c3cc4ccccc4oc3=O)=NN2c2nc(-c3ccc(Br)cc3)cs2)cc1O (stereo unspecified) | 83
95 | O=c1oc2ccccc2cc1C1=NN(c2nc(-c3ccc(Br)cc3)cs2)C(C2=CC3C=CC=CC3N2)C1 (stereo unspecified) | 17
96 | Oc1ccccc1/C=N/c1nnc(S)s1 | 780
